Source: ChEMBL document CHEMBL4673209, “Discovery of a novel potent GPR40 full agonist” (Bioorg Med Chem Lett, 2018)
Calls of active or inactive are those of the source. The calls are words filed in the database; no cut-off is given here.

Assays:
[1] = Cmax in rat; type: ADME; details: in vivo
[2] = Cmax in dog; type: ADME, Canis lupus familiaris; details: in vivo
Rattus norvegicus [3] = experiment: Anti-glycemic activity in fasted Sprague-Dawley ZDF rat assessed as reduction in post-prandial hyperglycemia by measuring AUC(0 to 2 hrs) for blood glucose at 10 mg/kg administered for 1 day and measured on day 1 by OGTT; type: functional
[4] = target: Free fatty acid receptor 1 (Rattus norvegicus) (UniProt Q8K3T4); experiment: Agonist activity at rat GPR40 receptor expressed in CHOK1 cells assessed as induction of IP1 accumulation at 10 uM relative to AM1638; type: functional, cell-based; details: CHO-K1, filed as agonist
Free fatty acid receptor 1 (Rattus norvegicus), sequence (Q8K3T4 whole entry): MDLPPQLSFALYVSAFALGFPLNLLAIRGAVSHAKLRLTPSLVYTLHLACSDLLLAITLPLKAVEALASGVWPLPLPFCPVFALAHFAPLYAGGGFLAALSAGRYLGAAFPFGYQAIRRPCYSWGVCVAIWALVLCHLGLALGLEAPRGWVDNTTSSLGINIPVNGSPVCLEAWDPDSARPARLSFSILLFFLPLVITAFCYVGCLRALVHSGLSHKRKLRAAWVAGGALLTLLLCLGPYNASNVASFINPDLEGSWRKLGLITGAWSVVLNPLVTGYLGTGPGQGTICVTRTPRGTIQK

[5] = Hepatic clearance in rat; type: ADME; details: in vivo
[6] = Half life in iv dosed dog; type: ADME, organism-based, Canis lupus familiaris; details: in vivo
Mus musculus = species on record: Mus musculus; experiment: Anti-glycemic activity in GPR40 knockout mouse assessed as reduction in blood glucose excursion measured for 120 mins by IPGTT; type: functional, organism-based
[7] = Clearance in dog; type: ADME, Canis lupus familiaris; details: in vivo
[8] = target: T1, Peroxisome proliferator-activated receptor delta (Homo sapiens) (UniProt Q03181); experiment: Agonist activity at PPARbeta (unknown origin)
T1 sequence (whole entry): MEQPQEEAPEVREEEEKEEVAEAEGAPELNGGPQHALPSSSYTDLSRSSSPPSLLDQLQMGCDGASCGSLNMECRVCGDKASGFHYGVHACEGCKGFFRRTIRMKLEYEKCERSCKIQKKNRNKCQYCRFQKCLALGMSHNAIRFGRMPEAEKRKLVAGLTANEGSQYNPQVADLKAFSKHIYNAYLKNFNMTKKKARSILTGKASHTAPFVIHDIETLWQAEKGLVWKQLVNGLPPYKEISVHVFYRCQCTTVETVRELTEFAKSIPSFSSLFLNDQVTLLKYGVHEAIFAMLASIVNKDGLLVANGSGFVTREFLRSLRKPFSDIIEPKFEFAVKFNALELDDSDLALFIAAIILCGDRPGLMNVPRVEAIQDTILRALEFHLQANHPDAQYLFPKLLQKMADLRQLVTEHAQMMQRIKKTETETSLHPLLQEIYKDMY

Rattus norvegicus [9] = experiment: Anti-glycemic activity in fasted Sprague-Dawley ZDF rat assessed as increase in insulin secretion by measuring insulin level in plasma administered 30 mins prior to glucose challenge measured after 140 mins by OGTT; type: functional, organism-based; details: dose 1-10 mg/kg, time 170.0 min
Rattus norvegicus [10] = experiment: Anti-glycemic activity in fasted Sprague-Dawley ZDF rat assessed as reduction in post-prandial hyperglycemia by measuring AUC(0 to 2 hrs) for blood glucose at 10 mg/kg administered daily for 8 days and measured on day 8 by OGTT; type: functional; details: time 8 day
[11] = target: Free fatty acid receptor 1 (Rattus norvegicus) (UniProt Q8K3T4); experiment: Agonist activity at GPR40 in rat INS1 (832/13) cells assessed as induction of glucose-stimulated insulin secretion in presence of 10 mM glucose; type: cell-based; details: INS-1 832/13, filed as agonist
[12] = Volume of distribution at steady state in cynomolgus monkey; type: ADME, Macaca fascicularis; details: in vivo, read-out: Vdss
Rattus norvegicus [13] = experiment: Anti-glycemic activity in fasted Sprague-Dawley ZDF rat assessed as increase in insulin secretion by measuring insulin level in plasma at 10 mg/kg administered 30 mins prior to glucose challenge measured after 140 mins by OGTT; type: functional; details: time 170 min, 2.833 h
[14] = target: T2, Free fatty acid receptor 4 (Homo sapiens) (UniProt Q5NUL3); experiment: Agonist activity at GPR120 (unknown origin)
T2 sequence (whole entry): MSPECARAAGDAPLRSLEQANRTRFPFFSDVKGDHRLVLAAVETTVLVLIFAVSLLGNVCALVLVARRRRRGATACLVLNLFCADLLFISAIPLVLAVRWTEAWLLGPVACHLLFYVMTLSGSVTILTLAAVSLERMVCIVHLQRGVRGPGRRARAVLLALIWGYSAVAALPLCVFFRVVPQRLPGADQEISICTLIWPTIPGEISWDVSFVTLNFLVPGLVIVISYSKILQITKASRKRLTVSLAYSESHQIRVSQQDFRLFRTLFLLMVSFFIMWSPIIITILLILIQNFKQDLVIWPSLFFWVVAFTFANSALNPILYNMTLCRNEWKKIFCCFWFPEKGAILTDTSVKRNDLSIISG

[15] = Apparent permeability across apical to basolateral side in human Caco2 cells; type: ADME, cell-based; details: Caco-2
[16] = Protein binding in cynomolgus monkey plasma; type: ADME, cell-free, Macaca fascicularis; details: read-out: PPB (converted)
[17] = Volume of distribution at steady state in dog; type: ADME, Canis lupus familiaris; details: in vivo, read-out: Vdss
[18] = target: T3, Free fatty acid receptor 2 (Homo sapiens) (UniProt O15552); experiment: Agonist activity at GPR43 (unknown origin)
T3 sequence (whole entry): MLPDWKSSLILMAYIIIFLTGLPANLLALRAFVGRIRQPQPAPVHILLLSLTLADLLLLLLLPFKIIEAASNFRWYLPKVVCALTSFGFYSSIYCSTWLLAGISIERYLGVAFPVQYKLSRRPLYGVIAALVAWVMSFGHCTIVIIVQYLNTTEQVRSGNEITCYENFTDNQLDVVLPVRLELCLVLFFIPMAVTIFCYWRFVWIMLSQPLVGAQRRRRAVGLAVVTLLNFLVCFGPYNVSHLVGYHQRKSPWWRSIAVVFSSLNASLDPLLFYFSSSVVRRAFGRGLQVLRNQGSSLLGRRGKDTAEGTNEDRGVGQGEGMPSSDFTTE

[19] = target: Free fatty acid receptor 1 (Rattus norvegicus) (UniProt Q8K3T4); experiment: Agonist activity at GPR40 receptor in rat INS1(832/13) cells assessed as induction of IP1 accumulation at 10 uM relative to AM1638; type: functional, cell-based; details: INS-1 832/13, filed as agonist
Cytochrome P450 2C19 = Cytochrome P450 2C19 (Homo sapiens, UniProt P33261); experiment: Inhibition of CYP2C19 (unknown origin); type: ADME
Cytochrome P450 2C19, sequence (P33261 whole entry): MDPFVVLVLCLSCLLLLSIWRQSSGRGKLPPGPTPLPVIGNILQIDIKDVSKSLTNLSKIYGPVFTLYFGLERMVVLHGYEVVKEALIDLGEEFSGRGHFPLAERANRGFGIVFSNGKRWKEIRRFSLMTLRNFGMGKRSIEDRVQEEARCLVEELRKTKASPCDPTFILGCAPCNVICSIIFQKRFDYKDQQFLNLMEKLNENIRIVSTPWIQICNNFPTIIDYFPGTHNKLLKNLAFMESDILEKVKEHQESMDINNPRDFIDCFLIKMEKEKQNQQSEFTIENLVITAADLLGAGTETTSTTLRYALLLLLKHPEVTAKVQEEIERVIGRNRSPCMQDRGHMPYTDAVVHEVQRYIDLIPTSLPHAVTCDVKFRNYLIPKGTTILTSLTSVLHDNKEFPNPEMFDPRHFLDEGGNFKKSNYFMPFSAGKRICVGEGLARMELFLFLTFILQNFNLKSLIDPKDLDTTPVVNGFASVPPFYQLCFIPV

[20] = Drug metabolism in rat assessed as (3S)-3-cyclopropyl-3-(3-((5-(5-fluoro-2-hydroxypyridin-4-yl)-6-isobutylpyrazin-2-yl)methoxy)phenyl)propanoic acid metabolite formation by MetID studies; type: ADME
[21] = Protein binding in rat plasma; type: ADME, cell-free; details: read-out: PPB (converted)
[22] = Apparent permeability from apical to basolateral side in dog MDCK-MDR1 cells; type: ADME, cell-based, Canis lupus familiaris
[23] = target: Free fatty acid receptor 1 (Rattus norvegicus, UniProt Q8K3T4); experiment: Agonist activity at GPR40 receptor in rat INS1(832/13) cells assessed as induction of IP1 accumulation; type: functional, cell-based, INS-1 832/13
Free fatty acid receptor 1, sequence (Q8K3T4 whole entry): as the sequence (Q8K3T4 whole entry) above

Work on `COc1cc(-c2ncc(COc3cccc([C@@H](CC(=O)O)C4CC4)c3)nc2CC(C)C)c(F)cn1` yielded a Cmax [1] of 9720 ng/mL, a Cmax [2] of 1550 ng/mL and an Activity (Rattus norvegicus [3]) of 37373 ng/mL.hr. It also gave an Activity [4] of 95%, a CLH [5] of 26.8 mL/min/kg and a half-life [6] of 4.82 h. The Activity (Mus musculus) was “inactive”, the clearance [7] was 8.36 mL/min/kg and the Activity [8] was “inactive”. For the same compound, the Activity (Rattus norvegicus [9]) was “Dose-dependent effect”, the Activity (Rattus norvegicus [10]) was 51024 ng/mL.hr and the Activity [11] was “Active”. The Vd [12] was 1.06 L/kg, the Activity (Rattus norvegicus [13]) was 16925 ng/mL and the Activity [14] was “inactive”. The Papp A→B [15] was 40 ×10⁻⁶ cm/s, the fraction unbound [16] was 0.0009 and the Vd [17] was 1.62 L/kg. The Activity [18] was “inactive”, the Activity [19] was 104% and the IC50 (Cytochrome P450 2C19) was > 10000 nM. For the same compound, the Drug metabolism [20] was “Metabolite_Detected”, the fraction unbound [21] was 0.0009 and the Papp A→B [22] was 50 ×10⁻⁶ cm/s. It also gave an EC50 [23] of 862 nM.
